Drawing on patent US9951021B2, “Compounds for inhibiting c-Myc/Max/DNA complex formation” (NATIONAL CANCER CENTER, priority 2016, dated 2018), this text covers IC50 for 34 compounds.

Molecules are shown by their SMILES.

For this test, the target named is T1, recombinant c-Myc/Max (Homo sapiens, UniProt P01106+P61244).
T1 construct: made in house
T1 sequence (P01106 whole entry): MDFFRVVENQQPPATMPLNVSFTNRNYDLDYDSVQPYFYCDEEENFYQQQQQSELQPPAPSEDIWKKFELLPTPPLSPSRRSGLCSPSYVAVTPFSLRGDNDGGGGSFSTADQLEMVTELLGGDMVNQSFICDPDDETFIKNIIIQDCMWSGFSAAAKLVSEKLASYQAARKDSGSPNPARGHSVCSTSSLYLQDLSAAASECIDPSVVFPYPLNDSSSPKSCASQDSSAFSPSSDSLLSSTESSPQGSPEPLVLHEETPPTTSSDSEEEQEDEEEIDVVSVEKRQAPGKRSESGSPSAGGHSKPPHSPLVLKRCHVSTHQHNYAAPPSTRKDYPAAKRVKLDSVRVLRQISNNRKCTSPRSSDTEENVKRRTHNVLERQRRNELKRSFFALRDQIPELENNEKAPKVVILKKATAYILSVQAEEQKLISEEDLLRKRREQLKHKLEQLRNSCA
T1 sequence (P61244 whole entry): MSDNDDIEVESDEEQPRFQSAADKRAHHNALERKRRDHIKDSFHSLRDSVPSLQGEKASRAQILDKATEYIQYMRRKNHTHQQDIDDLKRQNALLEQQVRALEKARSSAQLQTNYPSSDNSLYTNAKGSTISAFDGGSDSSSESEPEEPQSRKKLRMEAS
As to the kind of experiment: Electrophoretic mobility shift assay (EMSA): inhibitory activity on DNA binding of recombinant c-Myc/Max. Particulars: read-out: protein assay IC50. As to the method:
1) Preparation of Recombinant c-Myc and Max Proteins
Recombinant proteins were prepared as described in the following references: K. C. Jung et al., Fatty Acids, Inhibitors for the DNA Binding of c-Myc/Max Dimer, Suppress Proliferation and Induce Apoptosis of Differentiated HL-60 Human Leukemia Cell, Leukemia, 2006, 20(1), 122-7 or Kyung-Chae Jeong et al., Small-Molecule Inhibitors of c-Myc Transcriptional Factor Suppress Proliferation and Induce Apoptosis of Promyelocytic Leukemia Cell via Cell Cycle Arrest, Mol. BioSyst., 2010, 6, 1503-1509.
2) Electrophoretic Mobility Shift Assay (EMSA)
The inhibitory activity of each candidate compound on DNA binding of recombinant c-Myc/Max was measured using an electrophoretic mobility shift assay (EMSA). The ratio of protein-DNA complexes in each sample was evaluated by measuring band intensity. The oligonucleotides (E-box) corresponding to the consensus binding site of Myc/Max were dimerized through an annealing process. The protein mixture was incubated at room temperature for 5 minutes, and a DMSO solution containing each candidate compound was added thereto. The mixture was further incubated for 5 minutes, and the biotinylated DNA was added. To achieve a state of equilibrium, the final mixture was incubated at room temperature for 10 minutes. The protein-DNA complexes were separated from unbound free DNA by pre-electrophoresis using 8% polyacrylamide gel and 1×TBE buffer. After pre-electrophoresis, electrophoresis was performed at 120 V for 1 hour in 1×TBE buffer. Each band was visualized using HRP-conjugated streptavidin and an ECL solution, and band intensity was measured using image analysis software.
On the technique in general: A gel shift assay detects complexes by their altered migration in electrophoresis.
By IC50 is commonly meant the concentration that gives 50% inhibition. On to `CC(=O)c1c(SCc2ccccc2)n(C(=O)c2ccc(Br)cc2)c2c(Br)ccc(Cl)c2c1=O` [Compound 23, 3-acetyl-2-(benzylthio)-8-bromo-1-(4-bromobenzoyl)-5-chloroquinolin-4(1H)-one], for which the IC50 was < 1000 nM.
For `CC(=O)c1c([S+]([O-])Cc2ccc(C(F)(F)F)cc2)[nH]c2c(Br)ccc(Cl)c2c1=O` (stereo not shown) [Compound 70, 3-acetyl-8-bromo-5-chloro-2-((4-(trifluoromethyl)benzyl)sulfinyl)quinolin-4(1H)-one] the value was < 1000 nM.
In the case of `COc1cccc2[nH]c(SCc3ccc(S(F)(F)(F)(F)F)cc3)c(C(C)=O)c(=O)c12` [Compound 92, 3-acetyl-5-methoxy-2-((4-(pentafluoro-λ6-sulfanyl)benzyl)thio)quinolin-4(1H)-one] it was < 1000 nM; in that of `CC(=O)c1c([S+]([O-])C(C)c2ccccc2)[nH]c2c(Br)ccc(Cl)c2c1=O` (stereo not shown) [Compound 26, 3-acetyl-8-bromo-5-chloro-2-((1-phenylethyl)sulfinyl)quinolin-4(1H)-one], < 1000 nM.
Regarding `COc1cccc2[nH]c([S+]([O-])Cc3ccc(S(F)(F)(F)(F)F)cc3)c(C(C)=O)c(=O)c12` (stereo not shown) [Compound 93, 3-acetyl-5-methoxy-2-((4-(pentafluoro-λ6-sulfanyl)benzyl)sulfinyl)quinolin-4(1H)-one], the concentration for half-maximal inhibition (IC50) is < 1000 nM.
In the case of `CC(=O)c1c([S+]([O-])Cc2cc(F)cc(S(F)(F)(F)(F)F)c2)[nH]c2c(Br)ccc(Cl)c2c1=O` (stereo not shown) [Compound 76, 3-acetyl-8-bromo-5-chloro-2-((3-fluoro-5-(pentafluoro-λ6-sulfanyl)benzyl)sulfinyl)quinolin-4(1H)-one] it was < 1000 nM; in that of `COc1cccc2[nH]c([S+]([O-])Cc3cc(C)on3)c(C(C)=O)c(=O)c12` (stereo not shown) [Compound 94, 3-acetyl-5-methoxy-2-(((5-methylisoxazol-3-yl)methyl)sulfinyl)quinolin-4(1H)-one], < 1000 nM; in that of `CC(=O)c1c([S+]([O-])Cc2cc(Cl)ccc2Cl)[nH]c2c(Br)ccc(Cl)c2c1=O` (stereo not shown) [Compound 44, 3-acetyl-8-bromo-5-chloro-2-((2,5-dichlorobenzyl)sulfinyl)quinolin-4(1H)-one], < 1000 nM.
`CC(=O)c1c([S+]([O-])Cc2ccc(F)cc2F)[nH]c2c(Br)ccc(Cl)c2c1=O` (stereo not shown) [Compound 29, 3-acetyl-8-bromo-5-chloro-2-((2,4-difluorobenzyl)sulfinyl)quinolin-4(1H)-one]: the IC50 was < 1000 nM.
With `CC(=O)c1c(Sc2ccc(Br)cc2)[nH]c2c(Br)ccc(Cl)c2c1=O` [Compound 16, 3-acetyl-8-bromo-2-((4-bromophenyl)thio)-5-chloroquinolin-4(1H)-one], the IC50 was < 1000 nM.
For `CSc1[nH]c2c(Br)ccc(Cl)c2c(=O)c1C(C)=O` [Compound 2, 3-acetyl-8-bromo-5-chloro-2-(methylthio)quinolin-4(1H)-one], the IC50 was < 1000 nM.
In the case of `CC(=O)c1c(SCc2cccc(I)c2)[nH]c2c(Br)ccc(Cl)c2c1=O` [Compound 47, 3-acetyl-8-bromo-5-chloro-2-((3-iodobenzyl)thio)quinolin-4(1H)-one] it was < 1000 nM.
`COCSc1[nH]c2c(Br)ccc(Cl)c2c(=O)c1C(C)=O` [Compound 61, 3-acetyl-8-bromo-5-chloro-2-((methoxymethyl)thio)quinolin-4(1H)-one]: the IC50 was < 1000 nM.
`CC(=O)c1c([S+]([O-])Cc2ccc(N)nc2)[nH]c2c(Br)ccc(Cl)c2c1=O` (stereo not shown) [Compound 100, 3-acetyl-2-(((6-aminopyridin-3-yl)methyl)sulfinyl)-8-bromo-5-chloroquinolin-4(1H)-one]: the IC50 was < 1000 nM.
Take `CSc1c(C(C)=O)c(=O)c2c(Cl)ccc(Br)c2n1S(=O)(=O)c1ccc(C(C)(C)C)cc1` [Compound 40, 3-acetyl-8-bromo-1-((4-(tert-butyl)phenyl)sulfonyl)-5-chloro-2-(methylthio)quinolin-4(1H)-one]: the concentration for half-maximal inhibition (IC50) was < 1000 nM.
In the case of `Cc1cc(C[S+]([O-])c2[nH]c3c(Cl)ccc(Cl)c3c(=O)c2C(=O)C2CC2)no1` (stereo not shown) [Compound 97, 5,8-dichloro-3-(cyclopropanecarbonyl)-2-(((5-methylisoxazol-3-yl)methyl)sulfinyl)quinolin-4(1H)-one] it was < 1000 nM; in that of `CC(=O)c1c([S+]([O-])Cc2ccc(Cl)cc2)[nH]c2c(Br)ccc(Cl)c2c1=O` (stereo not shown) [Compound 11, 3-acetyl-8-bromo-5-chloro-2-((4-chlorobenzyl)sulfinyl)quinolin-4(1H)-one], < 1000 nM.
In the case of `CC(=O)c1c([S+]([O-])Cc2ccc(I)cc2)[nH]c2c(Cl)ccc(Cl)c2c1=O` (stereo not shown) [Compound 83, 3-acetyl-5,8-dichloro-2-((4-iodobenzyl)sulfinyl)quinolin-4(1H)-one] it was < 1000 nM.
For `CSc1c(C(C)=O)c(=O)c2c(Cl)ccc(Br)c2n1S(=O)(=O)c1ccc(Cl)cc1` [Compound 37, 3-acetyl-8-bromo-5-chloro-1-((4-chlorophenyl)sulfonyl)-2-(methylthio)quinolin-4(1H)-one] the value was < 1000 nM; for `CC(=O)c1c([S+]([O-])Cc2c(F)c(F)c(F)c(F)c2F)[nH]c2c(Br)ccc(Cl)c2c1=O` (stereo not shown) [Compound 78, 3-acetyl-8-bromo-5-chloro-2-(((perfluorophenyl)methyl)sulfinyl)quinolin-4(1H)-one], < 1000 nM; for `CC(=O)c1c([S+]([O-])Cc2cccnc2)[nH]c2c(Br)ccc(Cl)c2c1=O` (stereo not shown) [Compound 84, 3-acetyl-8-bromo-5-chloro-2-((pyridin-3-ylmethyl)sulfinyl)quinolin-4(1H)-one], < 1000 nM.
Regarding `CC(=O)c1c([S+]([O-])Cc2ccc(C(F)(F)F)o2)[nH]c2c(F)ccc(F)c2c1=O` (stereo not shown) [Compound 81, 3-acetyl-5,8-difluoro-2-(((5-(trifluoromethyl)furan-2-yl)methyl)sulfinyl)quinolin-4(1H)-one], the IC50 was < 1000 nM.
For `CC(=O)c1c([S+]([O-])Cc2ccc(C#N)cc2)[nH]c2c(Br)ccc(Cl)c2c1=O` (stereo not shown) [Compound 73, 4-(((3-acetyl-8-bromo-5-chloro-4-oxo-1,4-dihydroquinolin-2-yl)sulfinyl)methyl)benzonitrile] the value was < 1000 nM.
For `CC(=O)c1c(SCc2cccc(F)c2)[nH]c2c(Br)ccc(Cl)c2c1=O` [Compound 49, 3-acetyl-8-bromo-5-chloro-2-((3-fluorobenzyl)thio)quinolin-4(1H)-one] the value was < 1000 nM; for `CC(=O)c1c(SCc2cc(F)cc(F)c2)[nH]c2c(Br)ccc(Cl)c2c1=O` [Compound 45, 3-acetyl-8-bromo-5-chloro-2-((3,5-difluorobenzyl)thio)quinolin-4(1H)-one], < 1000 nM; for `CC(=O)c1c(S(C)(=O)=O)n(C(=O)c2ccc(Br)cc2)c2c(Br)ccc(Cl)c2c1=O` [Compound 21, 3-acetyl-8-bromo-1-(4-bromobenzoyl)-5-chloro-2-(methylsulfonyl)quinolin-4(1H)-one], < 1000 nM.
In the case of `CC(=O)c1c([S+](C)[O-])n(S(=O)(=O)c2ccc(C(C)(C)C)cc2)c2c(Br)ccc(Cl)c2c1=O` (stereo not shown) [Compound 42, 3-acetyl-8-bromo-1-((4-(tert-butyl)phenyl)sulfonyl)-5-chloro-2-(methylsulfinyl)quinolin-4(1H)-one] it was < 1000 nM; in that of `Cc1cc(C[S+]([O-])c2[nH]c3c(Br)ccc(Cl)c3c(=O)c2C(=O)C2CC2)no1` (stereo not shown) [Compound 96, 8-bromo-5-chloro-3-(cyclopropanecarbonyl)-2-(((5-methylisoxazol-3-yl)methyl)sulfinyl)quinolin-4(1H)-one], < 1000 nM; in that of `CC(=O)c1c([S+]([O-])Cc2ccc([S+]([O-])C(F)(F)F)cc2)[nH]c2c(Br)ccc(Cl)c2c1=O` (stereo not shown) [Compound 64, 3-acetyl-8-bromo-5-chloro-2-((4-((trifluoromethyl)sulfinyl)benzyl)sulfinyl)quinolin-4(1H)-one], < 1000 nM.
For the compound `CC(=O)c1c([S+](C)[O-])n(C(C)=O)c2c(Br)ccc(Cl)c2c1=O` (stereo not shown) [Compound 19, 1,1′-(8-bromo-5-chloro-2-(methylsulfinyl)-4-oxoquinoline-1,3-(4H)-diyl)bis(ethan-1-one)], the IC50 was < 1000 nM.
In the case of `CC(=O)c1c([S+]([O-])Cc2ccc(SC(F)(F)F)cc2)[nH]c2c(Br)ccc(Cl)c2c1=O` (stereo not shown) [Compound 56, 3-acetyl-8-bromo-5-chloro-2-((4-((trifluoromethyl)thio)benzyl)sulfinyl)quinolin-4(1H)-one] it was < 1000 nM; in that of `CC(=O)c1c(S(=O)(=O)Cc2ccccc2)[nH]c2c(Br)ccc(Cl)c2c1=O` [Compound 34, 3-acetyl-2-(benzylsulfonyl)-8-bromo-5-chloroquinolin-4(1H)-one], < 1000 nM; in that of `CC(=O)c1c(Sc2ccccc2)[nH]c2c(Br)ccc(Cl)c2c1=O` [Compound 12, 3-acetyl-8-bromo-5-chloro-2-(phenylthio)quinolin-4(1H)-one], < 1000 nM.
Consider `COCCNc1ccc(C[S+]([O-])c2[nH]c3c(Br)ccc(Cl)c3c(=O)c2C(C)=O)cn1` (stereo not shown) [Compound 105, 3-acetyl-8-bromo-5-chloro-2-(((6-((2-methoxyethyl)amino)pyridin-3-yl)methyl)sulfinyl)quinolin-4(1H)-one], for which the IC50 was < 1000 nM.
